Experimental data reported in US5006528A, “Carbostyril derivatives” (Otsuka Pharmaceutical Co., Ltd., priority 1988, dated 1991).
Read-outs that look alike come from different tables or passages of the source.

What was measured:
α-blocking activity = assay: Anti-epinephrine lethal activity in mouse; format: in vivo; settings: read-out: Anti-epinephrine activity (ED50 mg/kg) (B)
dopaminergic receptor = assay: Anti-apomorphine activity in mouse; settings: for ED50: Mus musculus, po, 1 h, read-out: Anti-apomorphine activity (ED50 mg/kg) (A); for (B)/(A): ratio of anti-epinephrine ED50 (B) to anti-apomorphine ED50 (A)
[1] = mouse, oral, 1 hour before lethal dose (1.5 mg/kg) of epinephrine intravenously, survival at 4 hours

For `O=C1CCc2ccc(OCCCCN3CCN(c4cccc(Cl)c4Cl)CC3)cc2N1` [Test compound 1, 7-{4-[4-(2,3-dichlorophenyl)-1-piperazinyl]butoxy}-3,4-dihydrocarbostyril], the ED50 (α-blocking activity; Mus musculus, po, 4 h) was over 128 mg/kg, the ED50 (dopaminergic receptor) was 0.18 mg/kg and the “(B)/(A)” value (dopaminergic receptor) was over 711.
With `Cc1c(N2CCN(CCCCOc3ccc4c(c3)NC(=O)CC4)CC2)cccc1[N+](=O)[O-]` [Test compound 2] the ED50 (α-blocking activity; [1]) was over 128 mg/kg, the ED50 (dopaminergic receptor) was 0.3 mg/kg and the “(B)/(A)” value (dopaminergic receptor) was over 426.7.
In the case of `Cc1cccc(N2CCN(CCCCOc3ccc4c(c3)NC(=O)CC4)CC2)c1Cl` [Test compound 3], the ED50 (α-blocking activity; [1]) is reported as over 64 mg/kg, the ED50 (dopaminergic receptor) is reported as 0.4 mg/kg and the “(B)/(A)” value (dopaminergic receptor) is reported as over 160.
`Cc1cccc(N2CCN(CCCCOc3ccc4c(c3)NC(=O)CC4)CC2)c1Br` [Test compound 4] was tested, and the ED50 (α-blocking activity; [1]) was over 64 mg/kg, the ED50 (dopaminergic receptor) was 0.4 mg/kg and the “(B)/(A)” value (dopaminergic receptor) was over 160.
For `O=C1CCc2ccc(OCCCCN3CCN(c4cc(Cl)cc(Cl)c4)CC3)cc2N1` [Test compound 5], the ED50 (α-blocking activity; [1]) was over 128 mg/kg, the ED50 (dopaminergic receptor) was 0.5 mg/kg and the “(B)/(A)” value (dopaminergic receptor) was over 256.
`O=C1CCc2ccc(OCCCCN3CCN(c4cc(Cl)cc(Cl)c4Cl)CC3)cc2N1` [Test compound 7] was tested, and the ED50 (α-blocking activity; [1]) was over 128 mg/kg, the ED50 (dopaminergic receptor) was 0.4 mg/kg and the “(B)/(A)” value (dopaminergic receptor) was over 320.
In the case of `COc1ccccc1N1CCN(CCCCOc2ccc3c(c2)NC(=O)CC3)CC1` [Test compound 8], the ED50 (α-blocking activity; [1]) is reported as 2.5 mg/kg, the ED50 (dopaminergic receptor) is reported as 0.2 mg/kg and the “(B)/(A)” value (dopaminergic receptor) is reported as 12.5.
With `O=C1CCc2ccc(OCCCCN3CCN(c4cccc(Br)c4Br)CC3)cc2N1` [Test compound 9] the ED50 (α-blocking activity; [1]) was over 256 mg/kg, the ED50 (dopaminergic receptor) was 0.6 mg/kg and the “(B)/(A)” value (dopaminergic receptor) was over 426.7.
With `O=c1ccc2ccc(OCCCCN3CCN(c4cccc(Cl)c4Cl)CC3)cc2[nH]1` [Test compound 10] the ED50 (α-blocking activity; [1]) was over 128 mg/kg, the ED50 (dopaminergic receptor) was 0.36 mg/kg and the “(B)/(A)” value (dopaminergic receptor) was over 355.
`CCOc1ccccc1N1CCN(CCCCOc2ccc3ccc(=O)[nH]c3c2)CC1` [Test compound 11] was tested, and the ED50 (α-blocking activity; [1]) was 3.8 mg/kg, the ED50 (dopaminergic receptor) was 0.12 mg/kg and the “(B)/(A)” value (dopaminergic receptor) was 31.6.
